# Test results published in ChEMBL document CHEMBL2401681 (Bioorg Med Chem Lett, 2013).
# Molecular target: T1, Estrogen receptor (Homo sapiens) (UniProt P03372)
# T1 sequence (whole entry): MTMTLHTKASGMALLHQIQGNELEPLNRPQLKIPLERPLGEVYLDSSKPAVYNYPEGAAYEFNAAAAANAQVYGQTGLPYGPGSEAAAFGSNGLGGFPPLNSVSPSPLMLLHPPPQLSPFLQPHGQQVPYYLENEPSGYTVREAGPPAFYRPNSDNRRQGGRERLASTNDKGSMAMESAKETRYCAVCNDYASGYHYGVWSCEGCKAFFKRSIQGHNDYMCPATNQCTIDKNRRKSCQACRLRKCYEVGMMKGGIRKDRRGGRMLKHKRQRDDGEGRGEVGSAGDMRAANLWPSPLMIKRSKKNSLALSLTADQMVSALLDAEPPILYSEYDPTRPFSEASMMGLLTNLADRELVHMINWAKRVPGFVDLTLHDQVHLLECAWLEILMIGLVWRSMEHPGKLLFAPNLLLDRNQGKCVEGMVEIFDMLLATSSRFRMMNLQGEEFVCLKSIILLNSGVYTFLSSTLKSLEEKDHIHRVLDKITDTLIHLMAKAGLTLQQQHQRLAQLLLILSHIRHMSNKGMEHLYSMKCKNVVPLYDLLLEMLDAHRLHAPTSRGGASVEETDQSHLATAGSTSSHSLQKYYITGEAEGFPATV
# Settings: at 3 µM; call rule not given here
row,SMILES,inhibition [%]
1,CC(C)(c1ccc(O)cc1)c1ccc(O)cc1 [BISPHENOL A],38
2,Cc1cc(Cc2ccc(O)c(C)c2)ccc1O,26
3,Cc1cc(C(C)(C)c2ccc(O)cc2)ccc1O,48
4,Oc1ccc(Cc2ccc(O)cc2)cc1,35

# Molecular target: T1, Estrogen receptor (Homo sapiens)
# Assay: Agonist activity at human Gal4-ERalpha at 10 uM by reporter gene assay relative to 17beta-estradiol
# Settings: not given
row,SMILES,Activity [%]
1,CC(C)(c1ccc(O)cc1)c1ccc(O)cc1 [BISPHENOL A],33
2,Cc1cc(Cc2ccc(O)c(C)c2)ccc1O,23
3,Cc1cc(C(C)(C)c2ccc(O)cc2)ccc1O,26
4,Cc1cc(C(C)(C)c2ccc(O)c(C)c2)ccc1O,31

# Molecular target: T2, Androgen receptor (Homo sapiens, UniProt P10275)
# T2 sequence (P10275 whole entry): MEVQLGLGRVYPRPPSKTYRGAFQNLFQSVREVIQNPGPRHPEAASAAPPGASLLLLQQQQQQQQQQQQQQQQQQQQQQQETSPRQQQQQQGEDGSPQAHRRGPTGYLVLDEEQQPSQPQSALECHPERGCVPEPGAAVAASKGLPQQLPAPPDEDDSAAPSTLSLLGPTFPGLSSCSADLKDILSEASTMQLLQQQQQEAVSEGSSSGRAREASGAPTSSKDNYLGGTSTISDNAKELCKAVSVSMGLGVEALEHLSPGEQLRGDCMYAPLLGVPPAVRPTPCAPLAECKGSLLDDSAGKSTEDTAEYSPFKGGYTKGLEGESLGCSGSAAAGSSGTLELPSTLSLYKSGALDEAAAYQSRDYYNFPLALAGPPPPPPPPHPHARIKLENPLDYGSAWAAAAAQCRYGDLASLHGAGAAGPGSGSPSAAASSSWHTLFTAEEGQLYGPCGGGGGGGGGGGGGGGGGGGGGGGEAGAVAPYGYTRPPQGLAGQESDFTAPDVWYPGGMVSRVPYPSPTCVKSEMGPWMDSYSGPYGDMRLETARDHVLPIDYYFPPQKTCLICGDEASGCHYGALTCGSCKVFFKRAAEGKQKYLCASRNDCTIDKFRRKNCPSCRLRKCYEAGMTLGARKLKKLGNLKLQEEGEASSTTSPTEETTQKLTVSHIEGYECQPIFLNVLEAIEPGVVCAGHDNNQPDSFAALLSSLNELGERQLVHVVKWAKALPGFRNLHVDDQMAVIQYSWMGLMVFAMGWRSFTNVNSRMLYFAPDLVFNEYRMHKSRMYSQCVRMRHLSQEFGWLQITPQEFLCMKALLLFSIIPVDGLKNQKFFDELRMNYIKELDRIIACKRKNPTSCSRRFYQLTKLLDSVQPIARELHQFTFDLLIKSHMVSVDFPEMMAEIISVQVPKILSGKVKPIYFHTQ
# Assay: Antagonist activity at human pSG5-AR assessed as inhibition of dihydrotestosterone-induced effect by reporter gene assay
# Settings: not given
row,SMILES,IC50 [nM]
1,CC(C)(c1ccc(O)cc1)c1ccc(O)cc1 [BISPHENOL A],5900
2,CCCC[Si](CCCC)(c1ccc(O)c(C)c1)c1ccc(O)c(C)c1,8200
3,CCCC(CCC)(c1ccc(O)c(C)c1)c1ccc(O)c(C)c1,25000
4,CCC(CC)(c1ccc(N)c(C)c1)c1ccc(O)c(C)c1,5400
5,CC[Si](CC)(c1ccc(O)c(C)c1)c1ccc(O)c(C)c1,1900
6,CCC(CC)(c1ccc(O)c(C)c1)c1ccc(O)c(C)c1,4500

# Molecular target: T3, Estrogen receptor (Homo sapiens, UniProt P03372)
# T3 sequence (P03372 whole entry): T1 sequence (whole entry)
# Assay: Agonist activity at human Gal4-ERalpha by reporter gene assay
# Settings: not given
row,SMILES,EC50
1,CCC(CC)(c1ccc(O)cc1)c1ccc(O)cc1,Not Active
2,CCCCC(CCCC)(c1ccc(O)c(CC)c1)c1ccc(O)c(CC)c1,Not Active
3,CCCCC(CCCC)(c1ccc(O)cc1)c1ccc(O)cc1,Not Active
4,CCCCC(CCCC)(c1ccc(O)c(C)c1)c1ccc(O)c(C)c1,Not Active
5,CCCC(CCC)(c1ccc(O)c(CC)c1)c1ccc(O)c(CC)c1,Not Active
6,CCCc1cc(C(CCC)(CCC)c2ccc(O)c(CCC)c2)ccc1O,Not Active
7,Cc1cc(C2(c3ccc(O)c(C)c3)CCCC2)ccc1O,Not Active
8,CCCC[Si](CCCC)(c1ccc(O)c(C)c1)c1ccc(O)c(C)c1,Not Active
9,CCCc1cc(C(CC)(CC)c2ccc(O)c(CCC)c2)ccc1O,Not Active
10,CCCC(CCC)(c1ccc(O)c(C)c1)c1ccc(O)c(C)c1,Not Active
11,CCC(CC)(c1ccc(N)c(C)c1)c1ccc(O)c(C)c1,Not Active
12,CC[Si](CC)(c1ccc(O)c(C)c1)c1ccc(O)c(C)c1,Not Active
13,Oc1ccc(C2(c3ccc(O)cc3)CCCC2)cc1,Not Active
14,CCC(CC)(c1cc(C)c(O)c(C)c1)c1cc(C)c(O)c(C)c1,Not Active
15,CCCC(CCC)(c1ccc(O)cc1)c1ccc(O)cc1,Not Active
16,Oc1ccc(C2(c3ccc(O)cc3)CCCCC2)cc1,Not Active
17,Cc1cc(C2(c3ccc(O)c(C)c3)CCCCC2)ccc1O,Not Active
18,CCC(CC)(c1ccc(O)cc1)c1ccc(O)c(C)c1,Not Active
19,CCCCC(CCCC)(c1ccc(O)c(CCC)c1)c1ccc(O)c(CCC)c1,Not Active
20,CCC(CC)(c1ccc(O)c(C)c1)c1ccc(O)c(C)c1,Not Active
21,CCc1cc(C(CC)(CC)c2ccc(O)c(CC)c2)ccc1O,Not Active

# Same assay, conditions: read-out: EC50
row,SMILES,EC50 [nM]
1,Oc1ccc(Cc2ccc(O)cc2)cc1,910

# Molecular target: T4, Estrogen receptor beta (Homo sapiens, UniProt Q92731)
# T4 sequence (Q92731 whole entry, the tested form may be a part): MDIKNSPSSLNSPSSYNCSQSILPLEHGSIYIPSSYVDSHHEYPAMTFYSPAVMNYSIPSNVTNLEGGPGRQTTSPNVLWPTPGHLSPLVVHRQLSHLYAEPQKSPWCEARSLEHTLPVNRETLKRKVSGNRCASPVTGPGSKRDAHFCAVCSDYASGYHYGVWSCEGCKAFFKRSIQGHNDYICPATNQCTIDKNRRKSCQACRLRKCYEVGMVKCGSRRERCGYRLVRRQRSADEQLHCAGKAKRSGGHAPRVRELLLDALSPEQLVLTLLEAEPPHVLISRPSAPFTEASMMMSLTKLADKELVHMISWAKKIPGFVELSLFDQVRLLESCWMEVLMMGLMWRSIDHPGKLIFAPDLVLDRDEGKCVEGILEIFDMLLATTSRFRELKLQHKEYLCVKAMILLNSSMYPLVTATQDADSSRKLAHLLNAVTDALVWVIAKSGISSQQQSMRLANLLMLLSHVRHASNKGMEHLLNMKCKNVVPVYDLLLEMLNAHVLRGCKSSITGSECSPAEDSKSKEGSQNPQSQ
# Assay: Agonist activity at human Gal4-ERbeta by reporter gene assay
# Settings: not given
row,SMILES,EC50
1,CCCCC(CCCC)(c1ccc(O)c(CC)c1)c1ccc(O)c(CC)c1,Not Active
2,CCCCC(CCCC)(c1ccc(O)cc1)c1ccc(O)cc1,Not Active
3,CCCCC(CCCC)(c1ccc(O)c(C)c1)c1ccc(O)c(C)c1,Not Active
4,CCCC(CCC)(c1ccc(O)c(CC)c1)c1ccc(O)c(CC)c1,Not Active
5,CCCc1cc(C(CCC)(CCC)c2ccc(O)c(CCC)c2)ccc1O,Not Active
6,Cc1cc(C2(c3ccc(O)c(C)c3)CCCC2)ccc1O,Not Active
7,CCCC[Si](CCCC)(c1ccc(O)c(C)c1)c1ccc(O)c(C)c1,Not Active
8,CCCc1cc(C(CC)(CC)c2ccc(O)c(CCC)c2)ccc1O,Not Active
9,CCCC(CCC)(c1ccc(O)c(C)c1)c1ccc(O)c(C)c1,Not Active
10,CCC(CC)(c1ccc(N)c(C)c1)c1ccc(O)c(C)c1,Not Active
11,CC[Si](CC)(c1ccc(O)c(C)c1)c1ccc(O)c(C)c1,Not Active
12,Oc1ccc(C2(c3ccc(O)cc3)CCCC2)cc1,Not Active
13,CCC(CC)(c1cc(C)c(O)c(C)c1)c1cc(C)c(O)c(C)c1,Not Active
14,Oc1ccc(C2(c3ccc(O)cc3)CCCCC2)cc1,Not Active
15,Cc1cc(C2(c3ccc(O)c(C)c3)CCCCC2)ccc1O,Not Active
16,CCCCC(CCCC)(c1ccc(O)c(CCC)c1)c1ccc(O)c(CCC)c1,Not Active
17,CCc1cc(C(CC)(CC)c2ccc(O)c(CC)c2)ccc1O,Not Active

# Same assay, conditions: read-out: EC50
row,SMILES,EC50 [nM]
1,Cc1cc(Cc2ccc(O)c(C)c2)ccc1O,5500
2,Oc1ccc(Cc2ccc(O)cc2)cc1,1900

# Molecular target: T4, Estrogen receptor beta
# Settings: at 3 µM
# Description: Antagonist activity at human Gal4-ERbeta assessed as inhibition of 17beta-estradiol-induced effect at 3 uM by reporter gene assay
row,SMILES,inhibition [%]
1,CC(C)(c1ccc(O)cc1)c1ccc(O)cc1 [BISPHENOL A],25
2,Cc1cc(C(C)(C)c2ccc(O)cc2)ccc1O,26
3,Oc1ccc(Cc2ccc(O)cc2)cc1,24

# Molecular target: T4, Estrogen receptor beta
# Assay: Antagonist activity at human Gal4-ERbeta assessed as inhibition of 17beta-estradiol-induced effect by reporter gene assay
# Settings: not given
row,SMILES,IC50
1,CCCC[Si](CCCC)(c1ccc(O)c(C)c1)c1ccc(O)c(C)c1,Not Active
2,Cc1cc(Cc2ccc(O)c(C)c2)ccc1O,Not Active

# Same assay, conditions: read-out: IC50
row,SMILES,IC50 [nM]
1,CCC(CC)(c1ccc(O)cc1)c1ccc(O)cc1,93
2,CCCCC(CCCC)(c1ccc(O)c(CC)c1)c1ccc(O)c(CC)c1,4500
3,CCCCC(CCCC)(c1ccc(O)cc1)c1ccc(O)cc1,180
4,CCCCC(CCCC)(c1ccc(O)c(C)c1)c1ccc(O)c(C)c1,150
5,CCCC(CCC)(c1ccc(O)c(CC)c1)c1ccc(O)c(CC)c1,2600
6,Cc1cc(C2(c3ccc(O)c(C)c3)CCCC2)ccc1O,770
7,CCCC(CCC)(c1ccc(O)c(C)c1)c1ccc(O)c(C)c1,140
8,CCC(CC)(c1ccc(N)c(C)c1)c1ccc(O)c(C)c1,43
9,CC[Si](CC)(c1ccc(O)c(C)c1)c1ccc(O)c(C)c1,800
10,Oc1ccc(C2(c3ccc(O)cc3)CCCC2)cc1,270
11,CCC(CC)(c1cc(C)c(O)c(C)c1)c1cc(C)c(O)c(C)c1,300
12,CCCC(CCC)(c1ccc(O)cc1)c1ccc(O)cc1,2200
13,Oc1ccc(C2(c3ccc(O)cc3)CCCCC2)cc1,560
14,Cc1cc(C2(c3ccc(O)c(C)c3)CCCCC2)ccc1O,790
15,CCC(CC)(c1ccc(O)cc1)c1ccc(O)c(C)c1,380
16,CCC(CC)(c1ccc(O)c(C)c1)c1ccc(O)c(C)c1,260
17,CCc1cc(C(CC)(CC)c2ccc(O)c(CC)c2)ccc1O,1300

# Molecular target: T3, Estrogen receptor
# Assay: Antagonist activity at human Gal4-ERalpha assessed as inhibition of 17beta-estradiol-induced effect by reporter gene assay
# Settings: not given
row,SMILES,IC50 [nM]
1,CCC(CC)(c1ccc(O)cc1)c1ccc(O)cc1,86
2,CCCCC(CCCC)(c1ccc(O)c(CC)c1)c1ccc(O)c(CC)c1,2900
3,CCCCC(CCCC)(c1ccc(O)cc1)c1ccc(O)cc1,79
4,CCCCC(CCCC)(c1ccc(O)c(C)c1)c1ccc(O)c(C)c1,14
5,CCCC(CCC)(c1ccc(O)c(CC)c1)c1ccc(O)c(CC)c1,490
6,Cc1cc(C2(c3ccc(O)c(C)c3)CCCC2)ccc1O,84
7,CCCC(CCC)(c1ccc(O)c(C)c1)c1ccc(O)c(C)c1,4.9
8,CCC(CC)(c1ccc(N)c(C)c1)c1ccc(O)c(C)c1,98
9,CC[Si](CC)(c1ccc(O)c(C)c1)c1ccc(O)c(C)c1,72
10,Oc1ccc(C2(c3ccc(O)cc3)CCCC2)cc1,170
11,CCC(CC)(c1cc(C)c(O)c(C)c1)c1cc(C)c(O)c(C)c1,74
12,CCCC(CCC)(c1ccc(O)cc1)c1ccc(O)cc1,99
13,Oc1ccc(C2(c3ccc(O)cc3)CCCCC2)cc1,520
14,Cc1cc(C2(c3ccc(O)c(C)c3)CCCCC2)ccc1O,230
15,CCC(CC)(c1ccc(O)cc1)c1ccc(O)c(C)c1,110
16,CCC(CC)(c1ccc(O)c(C)c1)c1ccc(O)c(C)c1,25
17,CCc1cc(C(CC)(CC)c2ccc(O)c(CC)c2)ccc1O,230
